PubChem BioAssay AID256 (DTP/NCI, 2004)
Several values for one entry are separate records, joined by “and”; a condition that tells them apart may be missing. Equal values may be shown once. Inconclusive results and toxic doses are left out. The calls were made as follows: active = survival T/C of 150% or more; inactive = T/C below 125% in these data.

System: CD2F1 mice, L1210 leukemia ip, survival T/C
Test: NCI In Vivo Anticancer Drug Screen. Data for tumor model L1210 Leukemia (intraperitoneal) in CD2F1 (CDF1) mice
Conditions: higher = longer survival
Outline: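 Mice carrying a transplanted tumor received test compound or vehicle alone. The value is the measurement in the treated group divided by that in the vehicle-treated control group.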

[1] = endpoint: mean survival time, dose: 100.0 mg/kg/injection, schedule: Q04DX003 (ip), vehicle: saline with Tween-80
[2] = endpoint: mean survival time, dose: 100.0 mg/kg/injection, schedule: Q01DX009 (ip), vehicle: saline with Tween-80
[3] = endpoint: mean survival time, dose: 200.0 mg/kg/injection, schedule: Q01DX009 (ip), vehicle: saline with Tween-80
[4] = endpoint: mean survival time, dose: 200.0 mg/kg/injection, schedule: Q04DX003 (ip), vehicle: saline with Tween-80
[5] = endpoint: mean survival time, dose: 400.0 mg/kg/injection, schedule: Q01DX009 (ip), vehicle: saline with Tween-80
[6] = endpoint: mean survival time, dose: 400.0 mg/kg/injection, schedule: Q04DX003 (ip), vehicle: saline with Tween-80
[7] = endpoint: mean survival time, dose: 100.0 mg/kg/injection, schedule: Q01DX009 (ip), vehicle: saline

Measured: T/C

CC(C)(O)c1cc(Cl)c(C#N)c(Cl)c1
inactive: endpoint: mean survival time, dose: 37.5 mg/kg/injection, schedule: Q04DX002 (ip), vehicle: saline with Tween-80 109 % of control | endpoint: mean survival time, dose: 75.0 mg/kg/injection, schedule: Q04DX002 (ip), vehicle: saline with Tween-80 102 % of control | endpoint: mean survival time, dose: 150.0 mg/kg/injection, schedule: Q04DX002 (ip), vehicle: saline with Tween-80 102 % of control | endpoint: mean survival time, dose: 300.0 mg/kg/injection, schedule: Q04DX002 (ip), vehicle: saline with Tween-80 93 % of control

CN(C)c1ccc(C(=C(c2ccc(N(C)C)cc2)c2ccc(N(C)C)cc2)c2ccc(N(C)C)cc2)cc1
inactive: endpoint: mean survival time, dose: 75.0 mg/kg/injection, schedule: Q01DX001 (ip), vehicle: saline 106 % of control

CCC(C#N)C1=CCCCCC1 (stereo unspecified)
inactive: [1] 103 % of control

O=[N+]([O-])c1ccc2c(c1)C(Br)c1cc(Br)ccc1-2 (stereo unspecified)
inactive: [2] 93 % of control | [1] 100 % of control | [3] 88 % of control | [4] 100 % of control | [5] 90 % of control | [6] 92 % of control

CC(CC(C)C(=O)O)C(=O)O (stereo unspecified)
inactive: [2] 100 % of control | [3] 105 % of control

CC(CC=O)P(=O)(c1ccccc1)c1ccccc1 (stereo unspecified)
inactive: [2] 94 % of control | [1] 94 % of control | [3] 92 % of control | [4] 91 % of control | [5] 95 % of control | [6] 91 % of control

COC(=O)c1csc(CCN)n1
inactive: [7] 102 % of control | endpoint: mean survival time, dose: 200.0 mg/kg/injection, schedule: Q01DX009 (ip), vehicle: saline 95 % of control | endpoint: mean survival time, dose: 400.0 mg/kg/injection, schedule: Q01DX009 (ip), vehicle: saline 92 % of control

O=[N+]([O-])c1c[n+]([O-])ccc1Cl
inactive: endpoint: mean survival time, dose: 5.0 mg/kg/injection, schedule: Q01DX001 (ip), vehicle: saline 101 % of control | endpoint: mean survival time, dose: 10.0 mg/kg/injection, schedule: Q01DX001 (ip), vehicle: saline 103 % of control

CSc1ncnc2c1c(C#N)cn2C1OC(CO)C(O)C1O (stereo unspecified)
inactive: endpoint: mean survival time, dose: 32.0 mg/kg/injection, schedule: Q01DX009 (ip), vehicle: saline 124 % of control | endpoint: mean survival time, dose: 53.0 mg/kg/injection, schedule: Q01DX009 (ip), vehicle: saline 87 % of control

COc1ccc(CC(C)NC(=O)c2ccc(OC)c(OC)c2)cc1OC (stereo unspecified)
inactive: endpoint: mean survival time, dose: 12.5 mg/kg/injection, schedule: Q01DX009 (ip), vehicle: other 105 % of control | endpoint: mean survival time, dose: 25.0 mg/kg/injection, schedule: Q01DX009 (ip), vehicle: other 94 % of control | endpoint: mean survival time, dose: 50.0 mg/kg/injection, schedule: Q01DX009 (ip), vehicle: other 96 % of control | endpoint: mean survival time, dose: 100.0 mg/kg/injection, schedule: Q01DX009 (ip), vehicle: other 93 % of control | endpoint: mean survival time, dose: 200.0 mg/kg/injection, schedule: Q01DX009 (ip), vehicle: other 94 % of control

O=C(Nc1ccccc1)c1ccccc1C1(O)c2ccccc2-c2ccccc21
inactive: [2] 88 % of control | [3] 92 % of control | [5] 91 % of control

CC1=NCCCN=C(C)CC[N-]CCC[N-]CC1.[Ni+2].[O-][Cl+3]([O-])([O-])O
inactive: endpoint: mean survival time, dose: 25.0 mg/kg/injection, schedule: Q04DX002 (ip), vehicle: saline with Tween-80 103 % of control | endpoint: mean survival time, dose: 50.0 mg/kg/injection, schedule: Q04DX002 (ip), vehicle: saline with Tween-80 115 % of control | endpoint: mean survival time, dose: 100.0 mg/kg/injection, schedule: Q04DX002 (ip), vehicle: saline with Tween-80 103 % of control | endpoint: mean survival time, dose: 100.0 mg/kg/injection, schedule: Q04DX002 (ip), vehicle: saline 124 % of control

O=C(NC1CCCCC1)OCC#CC#CCOC(=O)NC1CCCCC1
inactive: endpoint: mean survival time, dose: 100.0 mg/kg/injection, schedule: Q04DX003 (ip), vehicle: Klucel (hydroxypropylcellulose) (HPC) 94 % of control | endpoint: mean survival time, dose: 200.0 mg/kg/injection, schedule: Q04DX003 (ip), vehicle: Klucel (hydroxypropylcellulose) (HPC) 96 % of control | endpoint: mean survival time, dose: 400.0 mg/kg/injection, schedule: Q04DX003 (ip), vehicle: Klucel (hydroxypropylcellulose) (HPC) 100 % of control

CC(C)Oc1ccc2c(c1)Sc1ccc(Cl)cc1N2
inactive: [1] 93 % of control | [4] 96 % of control | [6] 102 % of control

O=C(O)CS(=O)(=O)c1ccccc1
inactive: endpoint: mean survival time, dose: 50.0 mg/kg/injection, schedule: Q01DX009 (ip), vehicle: saline 86 % of control | [7] 89 % of control

COC(=O)C(=[N+]=[N-])C(=O)OC
inactive: [2] 93 % of control | [1] 101 % of control | [3] 93 % of control | [4] 101 % of control | [5] 91 % of control | [6] 98 % of control

Cc1ccc(Cl)cc1[NH-].Cc1ccc(Cl)cc1[NH-].[Cl][Pt+2][Cl]
inactive: endpoint: mean survival time, dose: 25.0 mg/kg/injection, schedule: Q04DX003 (ip), vehicle: saline with Tween-80 100 % of control | endpoint: mean survival time, dose: 50.0 mg/kg/injection, schedule: Q04DX003 (ip), vehicle: saline with Tween-80 95 % of control | [1] 97 % of control | [4] 101 % of control

O=CNc1ccccc1Cl
inactive: [2] 101 % of control | [1] 94 % of control | [3] 98 % of control | [4] 95 % of control | [5] 91 % of control | [6] 91 % of control

Nc1cc(=O)[nH]c(=S)[nH]1.[Pt]
inactive: endpoint: mean survival time, dose: 3.13 mg/kg/injection, schedule: Q04DX003 (ip), vehicle: distilled water + Tween-80 105 % of control | endpoint: mean survival time, dose: 6.25 mg/kg/injection, schedule: Q04DX003 (ip), vehicle: distilled water + Tween-80 100 % of control | endpoint: mean survival time, dose: 12.5 mg/kg/injection, schedule: Q04DX003 (ip), vehicle: distilled water + Tween-80 101 % of control | endpoint: mean survival time, dose: 25.0 mg/kg/injection, schedule: Q04DX003 (ip), vehicle: distilled water + Tween-80 103 % of control | endpoint: mean survival time, dose: 50.0 mg/kg/injection, schedule: Q04DX003 (ip), vehicle: distilled water + Tween-80 101 % of control | endpoint: mean survival time, dose: 100.0 mg/kg/injection, schedule: Q04DX003 (ip), vehicle: distilled water + Tween-80 99 % of control | endpoint: mean survival time, dose: 200.0 mg/kg/injection, schedule: Q04DX003 (ip), vehicle: distilled water + Tween-80 94 % of control

O=C(NCCO)c1cccnc1
inactive: endpoint: mean survival time, dose: 75.0 mg/kg/injection, schedule: Q04DX003 (ip), vehicle: saline sonified 103 % of control | endpoint: mean survival time, dose: 150.0 mg/kg/injection, schedule: Q04DX003 (ip), vehicle: saline sonified 97 % of control | endpoint: mean survival time, dose: 300.0 mg/kg/injection, schedule: Q04DX003 (ip), vehicle: saline sonified 97 % of control | endpoint: mean survival time, dose: 600.0 mg/kg/injection, schedule: Q04DX003 (ip), vehicle: saline sonified 102 % of control

C[N+](C)(CC(=O)Nc1ccc(Cl)c(Cl)c1)Cc1ccc(Cl)c(Cl)c1
inactive: endpoint: mean survival time, dose: 6.25 mg/kg/injection, schedule: Q01DX001 (ip), vehicle: saline with Tween-80 101 % of control | endpoint: mean survival time, dose: 6.25 mg/kg/injection, schedule: Q01DX009 (ip), vehicle: saline sonified 94 % of control | endpoint: mean survival time, dose: 12.5 mg/kg/injection, schedule: Q01DX001 (ip), vehicle: saline with Tween-80 103 % of control | endpoint: mean survival time, dose: 12.5 mg/kg/injection, schedule: Q01DX009 (ip), vehicle: saline sonified 93 % of control | endpoint: mean survival time, dose: 25.0 mg/kg/injection, schedule: Q01DX001 (ip), vehicle: saline with Tween-80 105 % of control | endpoint: mean survival time, dose: 25.0 mg/kg/injection, schedule: Q01DX009 (ip), vehicle: saline sonified 86 % of control

Nc1ccc(C(OC(=O)c2cc3ccccc3c(Cc3c(O)c(C(=O)OC(c4ccc(N)cc4)(c4ccc(N)cc4)c4ccc(N)cc4)cc4ccccc34)c2O)(c2ccc(N)cc2)c2ccc(N)cc2)cc1
inactive: endpoint: mean survival time, dose: 0.78 mg/kg/injection, schedule: Q01DX009 (ip), vehicle: saline with Tween-80 100 % of control and 111 % of control | endpoint: mean survival time, dose: 1.56 mg/kg/injection, schedule: Q01DX009 (ip), vehicle: saline with Tween-80 123 % of control and 102 % of control | endpoint: mean survival time, dose: 3.12 mg/kg/injection, schedule: Q01DX009 (ip), vehicle: saline with Tween-80 105 % of control | endpoint: mean survival time, dose: 3.13 mg/kg/injection, schedule: Q01DX009 (ip), vehicle: saline with Tween-80 101 % of control | endpoint: mean survival time, dose: 6.25 mg/kg/injection, schedule: Q01DX009 (ip), vehicle: saline with Tween-80 104 % of control and 107 % of control | endpoint: mean survival time, dose: 12.5 mg/kg/injection, schedule: Q01DX009 (ip), vehicle: saline with Tween-80 88 % of control and 110 % of control | endpoint: mean survival time, dose: 25.0 mg/kg/injection, schedule: Q01DX009 (ip), vehicle: saline with Tween-80 101 % of control

CCC(C(=O)O)C(=O)O.[NH-]CC1CCCC[N-]1.[Pt+2]
inactive: endpoint: mean survival time, dose: 3.13 mg/kg/injection, schedule: Q04DX003 (ip), vehicle: saline 98 % of control | endpoint: mean survival time, dose: 25.0 mg/kg/injection, schedule: Q04DX003 (ip), vehicle: saline 115 % of control | endpoint: mean survival time, dose: 50.0 mg/kg/injection, schedule: Q04DX003 (ip), vehicle: saline 124 % of control | endpoint: median survival time, dose: 200.0 mg/kg/injection, schedule: Q04DX003 (ip), vehicle: distilled water + Tween-80 103 % of control
